Reference: ChEMBL document CHEMBL1201862, “PubChem BioAssay data set” (2004)
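Exposure lasted 48 hours, with cells grown in 96-well plates and compounds tested at five concentrations. At the GI50, growth is halved.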 Active and inactive are the calls of the source. Cut-off read from the data, not from the text of the source: active = GI50 up to about 1.1 µM and inactive = higher.

What was measured:
Assay in all cases: NCI-60 cell line screen, 48 h
RPMI-8226 = system: RPMI-8226
MDA-MB-435 = system: MDA-MB-435
SF-295 = system: SF-295
SK-MEL-5 = system: SK-MEL-5
SN12C = system: SN12C
OVCAR-8 = system: OVCAR-8
NCI-H23 = system: NCI-H23
IGROV-1 = system: IGROV-1
SNB-75 = system: SNB-75
NCI/ADR-RES = system: NCI/ADR-RES
SK-MEL-2 = system: SK-MEL-2
HT-29 = system: HT-29
MDA-N = system: MDA-N
LOX IMVI = system: LOX IMVI
SF-268 = system: SF-268
UO-31 = system: UO-31
PC-3 = system: PC-3
NCI-H460 = system: NCI-H460
RXF 393 = system: RXF 393
MDA-MB-231 = system: MDA-MB-231

SMILES	GI50 (RPMI-8226)	GI50 (MDA-MB-435)	GI50 (SF-295)	GI50 (SK-MEL-5)	GI50 (SN12C)	GI50 (OVCAR-8)	GI50 (NCI-H23)	GI50 (IGROV-1)	GI50 (SNB-75)	GI50 (NCI/ADR-RES)	GI50 (SK-MEL-2)	GI50 (HT-29)	GI50 (MDA-N)	GI50 (LOX IMVI)	GI50 (SF-268)	GI50 (UO-31)	GI50 (PC-3)	GI50 (NCI-H460)	GI50 (RXF 393)	GI50 (MDA-MB-231)
O=[N+]([O-])c1ccc(N/N=C2\C=CCCC2)c([N+](=O)[O-])c1	> 100 µM (inactive)	> 100 µM (inactive)	31.3 µM (inactive)	> 100 µM (inactive)	> 100 µM (inactive)	> 100 µM (inactive)	> 100 µM (inactive)	73.1 µM (inactive)	27.2 µM (inactive)	> 100 µM (inactive)	> 100 µM (inactive)	> 100 µM (inactive)	> 100 µM (inactive)	> 100 µM (inactive)	> 100 µM (inactive)	39 µM (inactive)	> 100 µM (inactive)	> 100 µM (inactive)	–	–
c1ccc2sc(C3(N4CCCC4)CCCCCC3)cc2c1	–	16.4 µM (inactive)	15 µM (inactive)	16.6 µM (inactive)	15.3 µM (inactive)	17.9 µM (inactive)	18 µM (inactive)	19.1 µM (inactive)	13.5 µM (inactive)	19.7 µM (inactive)	–	4.1 µM (inactive)	15.7 µM (inactive)	14.7 µM (inactive)	13.5 µM (inactive)	12.8 µM (inactive)	–	13.3 µM (inactive)	12.3 µM (inactive)	17.1 µM (inactive)
CNC1C(O)C(OC2C(N)CC(N)C(OC3OC(CN)=CCC3N)C2O)OCC1(C)O (stereo not given)	> 100 µM (inactive)	> 100 µM (inactive)	> 100 µM (inactive)	> 100 µM (inactive)	> 100 µM (inactive)	> 100 µM (inactive)	> 100 µM (inactive)	> 100 µM (inactive)	> 100 µM (inactive)	> 100 µM (inactive)	> 100 µM (inactive)	> 100 µM (inactive)	> 100 µM (inactive)	> 100 µM (inactive)	> 100 µM (inactive)	> 100 µM (inactive)	> 100 µM (inactive)	> 100 µM (inactive)	–	> 100 µM (inactive)
CN(C(=O)Cc1ccccc1)n1cnn(CC(=O)OC(C)(C)C)c1=S	> 10 µM (inactive)	> 10 µM (inactive)	> 10 µM (inactive)	> 10 µM (inactive)	> 10 µM (inactive)	> 10 µM (inactive)	> 10 µM (inactive)	> 10 µM (inactive)	> 10 µM (inactive)	> 10 µM (inactive)	–	> 10 µM (inactive)	> 10 µM (inactive)	> 10 µM (inactive)	> 10 µM (inactive)	> 10 µM (inactive)	> 10 µM (inactive)	> 10 µM (inactive)	–	> 10 µM (inactive)
COC1=CC(=O)c2c(O)c3c(c(O)c2C1=O)OC1(Oc2c(cc4cc(C)oc(=O)c4c2O)CC1O)C3O (stereo not given)	29.4 µM (inactive)	33.7 µM (inactive)	41.6 µM (inactive)	26.6 µM (inactive)	23.5 µM (inactive)	40.4 µM (inactive)	35.6 µM (inactive)	25.8 µM (inactive)	60.4 µM (inactive)	46.9 µM (inactive)	39.7 µM (inactive)	48.4 µM (inactive)	20.8 µM (inactive)	30.1 µM (inactive)	61 µM (inactive)	55.7 µM (inactive)	38.4 µM (inactive)	27.4 µM (inactive)	–	24 µM (inactive)
CC1(C)Oc2ccc3c(=O)c(-c4ccccc4)c(-c4ccccc4)oc3c2C1C(=O)O (stereo not given)	–	> 100 µM (inactive)	> 100 µM (inactive)	> 100 µM (inactive)	> 100 µM (inactive)	> 100 µM (inactive)	> 100 µM (inactive)	> 100 µM (inactive)	–	> 100 µM (inactive)	> 100 µM (inactive)	> 100 µM (inactive)	> 100 µM (inactive)	–	> 100 µM (inactive)	–	> 100 µM (inactive)	–	> 100 µM (inactive)	> 100 µM (inactive)
Cn1ccnc1Sc1ccc(/C=N\NC(=O)c2cccc(F)c2)cc1[N+](=O)[O-]	> 100 µM (inactive)	61.1 µM (inactive)	35.9 µM (inactive)	56.4 µM (inactive)	50.1 µM (inactive)	21.7 µM (inactive)	47.2 µM (inactive)	18.8 µM (inactive)	27 µM (inactive)	79.3 µM (inactive)	30.8 µM (inactive)	> 100 µM (inactive)	–	> 100 µM (inactive)	24 µM (inactive)	> 100 µM (inactive)	24 µM (inactive)	> 100 µM (inactive)	34.8 µM (inactive)	80.2 µM (inactive)
COc1cc(/C=C2\CCC(C)c3c2nc(N)c(C#N)c3-c2cc(OC)c(OC)c(OC)c2)cc(OC)c1OC (stereo not given)	56.2 µM (inactive)	> 100 µM (inactive)	–	71.9 µM (inactive)	44.4 µM (inactive)	13.2 µM (inactive)	–	0.984 µM (active)	0.165 µM (active)	–	> 100 µM (inactive)	33.3 µM (inactive)	> 100 µM (inactive)	41.5 µM (inactive)	25.7 µM (inactive)	–	55.1 µM (inactive)	–	73.3 µM (inactive)	37.2 µM (inactive)
C[C@H](C/C=C/C(C)(C)O)[C@H]1CC[C@@]2(C)[C@@H]3CC[C@H]4C(C)(C)[C@@H](O)CC[C@@]45C[C@@]35CC[C@]12C	15.8 µM (inactive)	20.5 µM (inactive)	16.6 µM (inactive)	–	13 µM (inactive)	14.8 µM (inactive)	–	22.4 µM (inactive)	20.3 µM (inactive)	5.14 µM (inactive)	17.3 µM (inactive)	26 µM (inactive)	34.1 µM (inactive)	11.7 µM (inactive)	1.94 µM (inactive)	23.3 µM (inactive)	26.3 µM (inactive)	23 µM (inactive)	–	15.4 µM (inactive)
COc1ccc2c(c1)OCC1Cc3ccccc3OC21 (stereo not given)	75.7 µM (inactive)	> 100 µM (inactive)	> 100 µM (inactive)	> 10 µM (inactive)	> 100 µM (inactive)	> 100 µM (inactive)	> 100 µM (inactive)	> 100 µM (inactive)	> 100 µM (inactive)	> 100 µM (inactive)	> 100 µM (inactive)	> 100 µM (inactive)	> 10 µM (inactive)	> 100 µM (inactive)	> 100 µM (inactive)	> 100 µM (inactive)	98.4 µM (inactive)	–	–	> 100 µM (inactive)
O=c1n(/N=C/c2ccccc2)c(=O)n2n1C1C=CC2CC1	> 100 µM (inactive)	> 100 µM (inactive)	> 100 µM (inactive)	> 100 µM (inactive)	> 100 µM (inactive)	> 100 µM (inactive)	> 100 µM (inactive)	> 100 µM (inactive)	> 100 µM (inactive)	> 100 µM (inactive)	> 100 µM (inactive)	> 100 µM (inactive)	> 100 µM (inactive)	> 100 µM (inactive)	> 100 µM (inactive)	> 100 µM (inactive)	> 100 µM (inactive)	> 100 µM (inactive)	–	> 100 µM (inactive)
OCc1ccc2c(c1)CC1(C2)Cc2cc3c(cc2C1O)CCC3 (stereo not given)	3.18 µM (inactive)	0.65 µM (active)	2.2 µM (inactive)	3.04 µM (inactive)	3.22 µM (inactive)	5.74 µM (inactive)	5.35 µM (inactive)	4.84 µM (inactive)	3.85 µM (inactive)	2.58 µM (inactive)	3.33 µM (inactive)	3.27 µM (inactive)	–	5.18 µM (inactive)	10.9 µM (inactive)	5.9 µM (inactive)	2.34 µM (inactive)	3.28 µM (inactive)	2.77 µM (inactive)	2.65 µM (inactive)
Cn1c(-c2cccs2)cc(-c2ccsc2)c1-c1ccsc1	–	> 100 µM (inactive)	> 100 µM (inactive)	36.1 µM (inactive)	> 100 µM (inactive)	> 100 µM (inactive)	8.24 µM (inactive)	> 100 µM (inactive)	> 100 µM (inactive)	> 100 µM (inactive)	–	93.5 µM (inactive)	> 100 µM (inactive)	–	> 100 µM (inactive)	> 100 µM (inactive)	> 100 µM (inactive)	> 100 µM (inactive)	> 100 µM (inactive)	> 100 µM (inactive)
COc1ccc2c(c1)C(=O)C1CCC(=O)N1C2c1ccc2c(c1)OCO2 (stereo not given)	2.91 µM (inactive)	6.21 µM (inactive)	15.9 µM (inactive)	11.4 µM (inactive)	12.1 µM (inactive)	18.1 µM (inactive)	15.1 µM (inactive)	16.5 µM (inactive)	14.9 µM (inactive)	22.7 µM (inactive)	13 µM (inactive)	4.12 µM (inactive)	8.32 µM (inactive)	9.59 µM (inactive)	13.6 µM (inactive)	10.6 µM (inactive)	4.2 µM (inactive)	23.9 µM (inactive)	–	12.2 µM (inactive)
CC12CC(C/C1=N/O)C(C)(C)C2 (stereo not given)	–	> 100 µM (inactive)	> 100 µM (inactive)	> 100 µM (inactive)	> 100 µM (inactive)	> 100 µM (inactive)	> 100 µM (inactive)	> 100 µM (inactive)	> 100 µM (inactive)	–	–	> 100 µM (inactive)	> 100 µM (inactive)	–	> 100 µM (inactive)	> 100 µM (inactive)	> 100 µM (inactive)	> 100 µM (inactive)	> 100 µM (inactive)	> 100 µM (inactive)
